Columns and labels:
Type in all cases: in vivo
db/db mice = experiment: PBA and leptin co-administration in db/db mice; details: for body weight / food consumption / food intake: PBA 1 g/kg/day oral and/or leptin 1 mg/kg IP, 16 days
Protocol: Six-week old db/db mice were orally treated with either PBA (1 g/kg/day) or VEH for four days. Following the pretreatment period, leptin receptor-deficient db/db mice were either administered with VEH or leptin (1 mg/kg) through intraperitoneal route for 16 days. (a) Bodyweight (g), (b) percent increase in bodyweight and (c) 24-hour food intake, (d) Blood glucose (mg/dl) levels of the groups. (n=5 in each group). Error bars are ±S.E.M., P values are determined by Student's t-test. (*p<0.05, **p<0.01, ***p<0.001).
We investigated whether the effect created by PBA and leptin combinatory treatment is solely mediated through the LepRb and not due to a non-specific effect. First, we pretreated db/db mice with PBA or vehicle for four days and subsequently initiated the leptin (1 mg/kg) treatment.

[1] = test system: HFD-fed obese C57BL/6 wt mice; experiment: TUDCA and leptin in HFD-induced obesity model
Protocol: (a) Hypothalamic PERK phosphorylation (Thr980) after 21 days of vehicle or TUDCA (150 mg/kg/day) treatment. Following a five-day pretreatment with TUDCA (150 mg/kg/day) or vehicle, nine-ten week old ob/ob mice were treated either with leptin (1 mg/kg/day) or vehicle. (b) Body weight (g), (c) % decrease in body weight, (d) daily food intake of the ob/ob mice during 18 days of treatment period with the indicated regimens. (e) Blood glucose (mg/dl) levels at the 18th day of treatment. Metabolic cage studies were performed; (f) CO2 production (ml/kg/hr), (g) O2 consumption (ml/kg/hr), (h) Respiratory exchange ratio (VCO2/VO2), (i) X-axis ambulatory activity, (j) Heat generation (kcal/hr). Dexa scan analysis of (k) total fat amount (g), (l) fat % and (m) lean body mass (g). C57BL/6 male wt mice were kept on HFD feeding for 32 weeks and following a five day acclimation period were pretreated with TUDCA (150 mg/kg/day) for five days. At the end of pretreatment period intraperitoneal vehicle and leptin (1 mg/kg/day) treatments were started. (n) Body weight (g), (o) % decrease in bodyweight of the HFD-fed mice during the 16-day treatment. (n=6 for VEH, n=7 for Lep, n=7 for TUD, n=8 for TUD+Lep group). Error bars are ±S.E.M., P values are determined by Student's t-test. (*p<0.05, **p<0.01, ***p<0.001)
We next tested the efficacy of TUDCA as a leptin sensitizer in the HFD-induced obesity model. In this experiment we used 35 weeks old and C57BL/6 wt mice, which were kept on HFD-feeding for 32 weeks. We divided the mice into two groups for TUDCA and TUDCA-leptin co-treatment. Body weight of the mice in this cohort was between 35-52 g. We specifically chose the mice with the highest bodyweight for TUDCA and leptin co-treatment group to investigate whether leptin will become effective in these severely obese mice when administered along with the TUDCA. The initial body weight of the TUDCA group was 38.33±1.16 (g) and TUDCA+leptin group was 48.46±1.82 (g) (FIG. 5n). Following an initial five days acclimation period mice were treated with TUDCA (150 mg/kg/day) for […], and subsequently either vehicle or […] treatment was started. […] Following the acclimation, TUDCA pretreatment was started and following the five-day pretreatment, vehicle and leptin (1 mg/kg/day) administration were initiated. TUDCA alone led to a significant decrease in bodyweight by reducing the initial weight from 36.16±0.99 (g) to 32.61±0.65 during the 16 days of treatment period (FIG. 5n). This reduction corresponds to an 8.60% decrease in bodyweight (FIG. 5o). […] Indeed, in our experience TUDCA acts as a much more powerful chemical chaperone when compared to PBA, as doses of TUDCA necessary for reducing ER stress in cellular systems^25 or as a leptin-sensitizing agent is much lower than PBA. […]

[2] = test system: Stat3 Tyr705 phosphorylation; experiment: Leptin-stimulated Stat3 Tyr705 phosphorylation in hypothalamus of wt lean and ob/ob mice; details: leptin 0.1 mg/kg IP, six hour fasting, 30 minutes
Protocol: Nine-week old lean wt and ob/ob mice were orally treated with either PBA (1 g/kg/day) or vehicle (VEH) for 26 days and PERK (Thr980) phosphorylation is examined in the hypothalamus extracts with direct immunoblotting. (B) Ten week-old wt lean and ob/ob mice were intraperitoneally injected with leptin (0.1 mg/kg) after six-hour starvation. Hypothalami were removed 30 minutes after the injections, and pStat3^Tyr705 and total Stat3 levels were examined. (C) Nine-week old lean wt and ob/ob mice were orally treated with PBA (1 g/kg/day) for 10 days. Following the pretreatment period, leptin-deficient ob/ob mice were either administered with VEH or with different doses of leptin through the intraperitoneal route. The effect of VEH or PBA administration on (C) bodyweight (g), (D) percent decrease in bodyweight and (E) 24-hour food intake (n=3 for VEH and n=4 PBA-treated group). Effect of 5 mg/kg/day leptin administration on (F) bodyweight, (G) percent decrease in bodyweight and (H) 24-hour food intake in VEH- or PBA-treated ob/ob mice (n=3 for VEH and n=4 PBA-treated group). Analysis of the same parameters (body weight, percent decrease in bodyweight and 24-hour food intake) in (I, J, K) 1 mg/kg/day and (L, M, N) 0.1 mg/kg/day leptin-treated mice (n=3 for VEH and n=4 PBA-treated group). Data presented as means±SEM (*p<0.05, **p<0.01, ***p<0.001). […]

[3] = mice on HFD 32 weeks, TUDCA 150 mg/kg/day with vehicle or leptin 1 mg/kg/day, 16 days

Compound	body weight (db/db mice)	food consumption / food intake (db/db mice)	blood glucose levels (db/db mice; PBA 1 g/kg/day oral vs vehicle)	initial body weight of the group (before acclimation) ([1]; C57BL/6 wt mice on HFD 32 weeks) [g]	body weight after treatment [1, 3] [g]	decrease in bodyweight [1, 3] [%]	initial weight at start of treatment period ([1]; mice on HFD 32 weeks, after acclimation) [g]	Stat3 Tyr705 phosphorylation in the hypothalamus ([2]; ob/ob mice)	Stat3 Tyr705 phosphorylation in the hypothalamus ([2]; wt lean mice)
O=C(O)CCCc1ccccc1 [PBA, 4-phenyl butyric acid]	significantly gained weight	no difference	reduced to a significantly lower level	–	–	–	–	–	–
C[C@H](CCC(=O)NCCS(=O)(=O)O)[C@H]1CC[C@H]2[C@@H]3[C@@H](O)C[C@@H]4C[C@H](O)CC[C@]4(C)[C@H]3CC[C@]12C [TUDCA, tauroursodeoxycholic acid]	–	–	–	38.33 ± 1.16	32.61 ± 0.65	8.60	36.16 ± 0.99	–	–
leptin: adipocyte-derived hormone that suppresses appetite	did not decrease	did not decrease	–	–	–	–	–	completely absent	responded well
